US20080107757A1, “Sophorae Subprostratae Radix Extract for Prevention and Treatment of Respiratory Diseases” (priority 2004, published 2008)

What was measured:
sensitized guinea pig = test: Inhibition of airway contraction (in vivo), OVA aerosol bronchospasm, airway resistance by plethysmograph
Description: To evaluate the inhibitory effect of Sophorae Radix extract prepared in Preparation Examples 1-3 against airway contraction, experiments were performed as described below by exposing antigens to a sensitized guinea pig and the results are shown in Table 2.
A Hartely male guinea pig(400-450 g, SLC, Japan) was sensitized by intravenously injecting 1.5 mL/kg of anti-ovalbumin anti-serum. 48 hrs after the sensitization, the guinea pig was administered with a drug orally. In 30 min, the guinea pig was pretreated by injecting 10 mg/kg of pyrilamine maleate, 10 mg/kg of indomethacin, and 0.1 mg/kg of propranolol subcutaneously, respectively. Then, the guinea pig was placed in Double Chamber Plethysmograph Box(HSE, Germany) installed with plethysmometer for measuring various respiratory indices and measured basic airway resistance values. 30 min after the pretreatment, 1% OVA was nebulized for 2 min in the form of aerosol by preparing a compressed air under high pressure. Airway resistance was measured for 30 min as an indicator of bronchospasm.

guinea pig = test: Antitussive effect, citric acid aerosol-induced cough; format: in vivo
Description: The method used was the method by M. H. Boskabady et al. (journal of Entnopharmacology 97, 2005, 79-82) with a bit of modifications.
A Hartley male guinea pig (450˜500 g, SLC, Japan) was orally administered with a drug. 1 hr after the administration, the guinea pig was placed in Double Chamber Plethysmograph Box (HSE, Germany) installed with plethysmometer and stabilized by allowing a 5 min of time for adaptation. After the stabilization, 0.6M citric acid was sprayed to the guinea pig for 7 min in the form of aerosol by preparing a compressed air under high pressure. The guinea pig was observed continuously by a trained observer and the number of coughs induced by the above spray of citric acid aerosol was measured by using a microphone and a speaker. The coughs were distinguished from a normal sneeze due to its particular signs such as a peculiar and high sound with its mouth open, movement of abdomen, and an instant change in air flow.

[1] = tested on: Phosphodiesterase 4 (PDE4); test: Inhibition of phosphodiesterase 4 (PDE4) activity, human U937 cells, [3H]cAMP; format: biochemical; conditions: positive control
Description: Human U937 cells were stabilized in the mixed solution comprising 50 mM Tris-HCl and 5 mM MgCl2 (pH 7.5) at 25° C. Sophorae Radix extract and 1.01 μM of ([3H]cAMP+cAMP) as a base material were combined together and allowed to react for 20 min to produce adenosine.

SMILES: CC(C)(O)c1ccccc1CC[C@@H](SCC1(CC(=O)O)CC1)c1cccc(/C=C/c2ccc3ccc(Cl)cc3n2)c1 [Montelukast]
- Inhibition Rate of Bronchospasm (%) (sensitized guinea pig; 10 mg/kg oral): 45%
- Inhibition Rate of Bronchospasm (%) (sensitized guinea pig; 40 mg/kg oral): 75%
- Cough (guinea pig; 10 mg/kg oral): 11.1 ± 2.9 (N = 9)
- Inhibition (%) of cough (guinea pig; 10 mg/kg oral): 10%
- Cough (guinea pig; 40 mg/kg oral): 11.4 ± 4.3 (N = 7)
- Inhibition (%) of cough (guinea pig; 40 mg/kg oral): 7%

SMILES: CC(C)Cn1c(=O)n(C)c(=O)c2[nH]cnc21 [IBMX, 3-isobutyl-1-methylxanthine]
- IC50 [1]: 20.7 µM

SMILES: COc1ccc2c(c1)[C@]13CCCC[C@@H]1[C@H](C2)N(C)CC3 [Dextromethorphan]
- Cough (guinea pig; 50 mg/kg oral): 11.1 ± 2.5 (N = 7)
- Inhibition (%) of cough (guinea pig; 50 mg/kg oral): 9%
- Cough (guinea pig; 100 mg/kg oral): 4.5 ± 2.6 (N = 10)
- Inhibition (%) of cough (guinea pig; 100 mg/kg oral): 63%
